# Tested on: Chenopodium album (CHEAL)
# Assay: Post-emergence efficacy, glasshouse
# Format: in vivo
# Conditions: Chenopodium album, post-emergence, 312 h; Application Rate 1000 g/Ha; evaluated after 13 days; 100=total damage to plant, 0=no damage to plant; read-out: Control of weed species after post-emergence application, CHEAL
# In short: (§1)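 Post-emergence spray on 14-day-old pot plants of the formulated compound (acetone/IF50, 50 g/l stock diluted in water with 0.25% or 1% Empicol ESC70 plus 1% ammonium sulphate). Glasshouse at 24/16° C day/night, 14 h light, 65% humidity; visual damage rated after 13 days, 0 none to 100 total.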
row,SMILES,pest or weed control at 1000 g/ha [%]
1,CCCS(=O)(=O)[N-]C(=O)c1c[n+](C)nc2ccccc12 [Compound A33],40
2,C[n+]1cc(C(=O)[N-]S(=O)(=O)C(C)(C)C)c2ccccc2n1 [Compound A36],30
3,C[n+]1cc(C(=O)[N-]c2nnn[nH]2)c2ccccc2n1 [Compound A17],30
4,C[n+]1cc(C(=O)[O-])c2ccccc2n1 [Compound A1],100
5,CC(C)CP(=O)([O-])c1c[n+](C)nc2ccccc12 [Compound A45],90
6,CCS(=O)(=O)[N-]C(=O)c1c[n+](C)nc2ccccc12 [Compound A37],80
7,"O=C(O)C[n+]1cc(C(=O)[O-])c2ccccc2n1 [Compound A23, 2-(carboxymethyl)cinnolin-2-ium-4-carboxylate]",50
8,Cn1nnnc1[N-]C(=O)c1c[n+](C)nc2ccccc12 [Compound A16],60

# Tested on: Eleusine indica (ELEIN)
# Assay: Post-emergence efficacy, glasshouse
# Format: in vivo
# Conditions: Eleusine indica, post-emergence, 312 h; Application Rate 1000 g/Ha; evaluated after 13 days; 100=total damage to plant, 0=no damage to plant; read-out: Control of weed species after post-emergence application, ELEIN
# In short: as §1
row,SMILES,pest or weed control at 1000 g/ha [%]
1,CCCS(=O)(=O)[N-]C(=O)c1c[n+](C)nc2ccccc12 [Compound A33],70
2,C[n+]1cc(C(=O)[N-]S(=O)(=O)C(C)(C)C)c2ccccc2n1 [Compound A36],30
3,C[n+]1cc(C(=O)[N-]c2nnn[nH]2)c2ccccc2n1 [Compound A17],20
4,C[n+]1cc(C(=O)[O-])c2ccccc2n1 [Compound A1],100
5,CC(C)CP(=O)([O-])c1c[n+](C)nc2ccccc12 [Compound A45],100
6,CCS(=O)(=O)[N-]C(=O)c1c[n+](C)nc2ccccc12 [Compound A37],70
7,"O=C(O)C[n+]1cc(C(=O)[O-])c2ccccc2n1 [Compound A23, 2-(carboxymethyl)cinnolin-2-ium-4-carboxylate]",40
8,Cn1nnnc1[N-]C(=O)c1c[n+](C)nc2ccccc12 [Compound A16],0

# Tested on: Amaranthus palmeri (AMAPA)
# Assay: Post-emergence efficacy, glasshouse
# Format: in vivo
# Conditions: Amaranthus palmeri, post-emergence, 312 h; Application Rate 1000 g/Ha; evaluated after 13 days; 100=total damage to plant, 0=no damage to plant; read-out: Control of weed species after post-emergence application, AMAPA
# In short: as §1
row,SMILES,pest or weed control at 1000 g/ha [%]
1,CCCS(=O)(=O)[N-]C(=O)c1c[n+](C)nc2ccccc12 [Compound A33],40
2,C[n+]1cc(C(=O)[N-]S(=O)(=O)C(C)(C)C)c2ccccc2n1 [Compound A36],40
3,C[n+]1cc(C(=O)[N-]c2nnn[nH]2)c2ccccc2n1 [Compound A17],50
4,C[n+]1cc(C(=O)[O-])c2ccccc2n1 [Compound A1],100
5,CC(C)CP(=O)([O-])c1c[n+](C)nc2ccccc12 [Compound A45],100
6,CCS(=O)(=O)[N-]C(=O)c1c[n+](C)nc2ccccc12 [Compound A37],100
7,"O=C(O)C[n+]1cc(C(=O)[O-])c2ccccc2n1 [Compound A23, 2-(carboxymethyl)cinnolin-2-ium-4-carboxylate]",50
8,Cn1nnnc1[N-]C(=O)c1c[n+](C)nc2ccccc12 [Compound A16],50

# Tested on: Echinochloa crus-galli (ECHCG)
# Assay: Post-emergence efficacy, glasshouse
# Format: in vivo
# Conditions: Echinochloa crus-galli, post-emergence, 312 h; Application Rate 1000 g/Ha; evaluated after 13 days; 100=total damage to plant, 0=no damage to plant; read-out: Control of weed species after post-emergence application, ECHCG
# In short: as §1
row,SMILES,pest or weed control at 1000 g/ha [%]
1,CCCS(=O)(=O)[N-]C(=O)c1c[n+](C)nc2ccccc12 [Compound A33],20
2,C[n+]1cc(C(=O)[N-]S(=O)(=O)C(C)(C)C)c2ccccc2n1 [Compound A36],10
3,C[n+]1cc(C(=O)[N-]c2nnn[nH]2)c2ccccc2n1 [Compound A17],0
4,C[n+]1cc(C(=O)[O-])c2ccccc2n1 [Compound A1],20
5,CC(C)CP(=O)([O-])c1c[n+](C)nc2ccccc12 [Compound A45],70
6,CCS(=O)(=O)[N-]C(=O)c1c[n+](C)nc2ccccc12 [Compound A37],40
7,"O=C(O)C[n+]1cc(C(=O)[O-])c2ccccc2n1 [Compound A23, 2-(carboxymethyl)cinnolin-2-ium-4-carboxylate]",30
8,Cn1nnnc1[N-]C(=O)c1c[n+](C)nc2ccccc12 [Compound A16],20

# Tested on: Lolium perenne (LOLPE)
# Assay: Post-emergence efficacy, glasshouse
# Format: in vivo
# Conditions: Lolium perenne, post-emergence, 312 h; Application Rate 1000 g/Ha; evaluated after 13 days; 100=total damage to plant, 0=no damage to plant; read-out: Control of weed species after post-emergence application, LOLPE
# In short: as §1
row,SMILES,pest or weed control at 1000 g/ha [%]
1,CCCS(=O)(=O)[N-]C(=O)c1c[n+](C)nc2ccccc12 [Compound A33],40
2,C[n+]1cc(C(=O)[N-]S(=O)(=O)C(C)(C)C)c2ccccc2n1 [Compound A36],0
3,C[n+]1cc(C(=O)[N-]c2nnn[nH]2)c2ccccc2n1 [Compound A17],10
4,C[n+]1cc(C(=O)[O-])c2ccccc2n1 [Compound A1],50
5,CC(C)CP(=O)([O-])c1c[n+](C)nc2ccccc12 [Compound A45],50
6,CCS(=O)(=O)[N-]C(=O)c1c[n+](C)nc2ccccc12 [Compound A37],40
7,"O=C(O)C[n+]1cc(C(=O)[O-])c2ccccc2n1 [Compound A23, 2-(carboxymethyl)cinnolin-2-ium-4-carboxylate]",10
8,Cn1nnnc1[N-]C(=O)c1c[n+](C)nc2ccccc12 [Compound A16],10

# Tested on: Setaria faberi (SETFA)
# Assay: Post-emergence efficacy, glasshouse
# Format: in vivo
# Conditions: Setaria faberi, post-emergence, 312 h; Application Rate 1000 g/Ha; evaluated after 13 days; 100=total damage to plant, 0=no damage to plant; read-out: Control of weed species after post-emergence application, SETFA
# In short: as §1
row,SMILES,pest or weed control at 1000 g/ha [%]
1,CCCS(=O)(=O)[N-]C(=O)c1c[n+](C)nc2ccccc12 [Compound A33],40
2,C[n+]1cc(C(=O)[N-]S(=O)(=O)C(C)(C)C)c2ccccc2n1 [Compound A36],30
3,C[n+]1cc(C(=O)[N-]c2nnn[nH]2)c2ccccc2n1 [Compound A17],10
4,C[n+]1cc(C(=O)[O-])c2ccccc2n1 [Compound A1],30
5,CC(C)CP(=O)([O-])c1c[n+](C)nc2ccccc12 [Compound A45],90
6,CCS(=O)(=O)[N-]C(=O)c1c[n+](C)nc2ccccc12 [Compound A37],60
7,"O=C(O)C[n+]1cc(C(=O)[O-])c2ccccc2n1 [Compound A23, 2-(carboxymethyl)cinnolin-2-ium-4-carboxylate]",30
8,Cn1nnnc1[N-]C(=O)c1c[n+](C)nc2ccccc12 [Compound A16],10

# Tested on: Ipomoea hederacea (IPOHE)
# Assay: Post-emergence efficacy, glasshouse
# Format: in vivo
# Conditions: Ipomoea hederacea, post-emergence, 312 h; Application Rate 1000 g/Ha; evaluated after 13 days; 100=total damage to plant, 0=no damage to plant; read-out: Control of weed species after post-emergence application, IPOHE
# In short: as §1
row,SMILES,pest or weed control at 1000 g/ha [%]
1,CCCS(=O)(=O)[N-]C(=O)c1c[n+](C)nc2ccccc12 [Compound A33],60
2,C[n+]1cc(C(=O)[N-]S(=O)(=O)C(C)(C)C)c2ccccc2n1 [Compound A36],30
3,C[n+]1cc(C(=O)[N-]c2nnn[nH]2)c2ccccc2n1 [Compound A17],40
4,C[n+]1cc(C(=O)[O-])c2ccccc2n1 [Compound A1],70
5,CC(C)CP(=O)([O-])c1c[n+](C)nc2ccccc12 [Compound A45],90
6,CCS(=O)(=O)[N-]C(=O)c1c[n+](C)nc2ccccc12 [Compound A37],80
7,"O=C(O)C[n+]1cc(C(=O)[O-])c2ccccc2n1 [Compound A23, 2-(carboxymethyl)cinnolin-2-ium-4-carboxylate]",20
8,Cn1nnnc1[N-]C(=O)c1c[n+](C)nc2ccccc12 [Compound A16],40

# Tested on: Digitaria sanguinalis (DIGSA)
# Assay: Post-emergence efficacy, glasshouse
# Format: in vivo
# Conditions: Digitaria sanguinalis, post-emergence, 312 h; Application Rate 1000 g/Ha; evaluated after 13 days; 100=total damage to plant, 0=no damage to plant; read-out: Control of weed species after post-emergence application, DIGSA
# In short: as §1
row,SMILES,pest or weed control at 1000 g/ha [%]
1,CCCS(=O)(=O)[N-]C(=O)c1c[n+](C)nc2ccccc12 [Compound A33],80
2,C[n+]1cc(C(=O)[N-]S(=O)(=O)C(C)(C)C)c2ccccc2n1 [Compound A36],10
3,C[n+]1cc(C(=O)[N-]c2nnn[nH]2)c2ccccc2n1 [Compound A17],10
4,C[n+]1cc(C(=O)[O-])c2ccccc2n1 [Compound A1],90
5,CC(C)CP(=O)([O-])c1c[n+](C)nc2ccccc12 [Compound A45],90
6,CCS(=O)(=O)[N-]C(=O)c1c[n+](C)nc2ccccc12 [Compound A37],80
7,"O=C(O)C[n+]1cc(C(=O)[O-])c2ccccc2n1 [Compound A23, 2-(carboxymethyl)cinnolin-2-ium-4-carboxylate]",70
8,Cn1nnnc1[N-]C(=O)c1c[n+](C)nc2ccccc12 [Compound A16],0

# Tested on: Euphorbia heterophylla (EPHHL)
# Assay: Post-emergence efficacy, glasshouse
# Format: in vivo
# Conditions: Euphorbia heterophylla, post-emergence, 312 h; Application Rate 1000 g/Ha; evaluated after 13 days; 100=total damage to plant, 0=no damage to plant; read-out: Control of weed species after post-emergence application, EPHHL
# In short: as §1
row,SMILES,pest or weed control at 1000 g/ha [%]
1,CCCS(=O)(=O)[N-]C(=O)c1c[n+](C)nc2ccccc12 [Compound A33],80
2,C[n+]1cc(C(=O)[N-]S(=O)(=O)C(C)(C)C)c2ccccc2n1 [Compound A36],20
3,C[n+]1cc(C(=O)[N-]c2nnn[nH]2)c2ccccc2n1 [Compound A17],20
4,C[n+]1cc(C(=O)[O-])c2ccccc2n1 [Compound A1],70
5,CC(C)CP(=O)([O-])c1c[n+](C)nc2ccccc12 [Compound A45],100
6,CCS(=O)(=O)[N-]C(=O)c1c[n+](C)nc2ccccc12 [Compound A37],90
7,"O=C(O)C[n+]1cc(C(=O)[O-])c2ccccc2n1 [Compound A23, 2-(carboxymethyl)cinnolin-2-ium-4-carboxylate]",20
8,Cn1nnnc1[N-]C(=O)c1c[n+](C)nc2ccccc12 [Compound A16],30

# From patent publication US20220132847A1, “CINNOLINIUM COMPOUNDS FOR USE IN A METHOD OF CONTROLLING UNWANTED PLANT GROWTH” (SYNGENTA CROP PROTECTION AG, priority 2019, published 2022)
